Experimental data published in patent publication EP0661266A1, “Substituted cyclic amine compounds as 5HT2 antagonists” (TOA EIYO LTD., priority 1993, dated 1995).
pIC50: −log10 of the molar value. Structures can show the parent of a compound that is named as a salt. Where two headings read alike, the source gives them in different places.

How the values were obtained:
serotonin 2 receptor = target: T1, serotonin 2 receptor (Rattus norvegicus, UniProt P14842); assay: Measurement of serotonin 2 receptor antagonistic activity (serotonin contraction of excised rat tail artery spiral specimen); assay type: cell-based; settings: against the contraction of 3 x 10⁻⁶ serotonin, drug administered 10 minutes before cumulative serotonin, read-out: IC₅₀ value
T1 construct: A piece of wire was inserted into each of the thus excised blood vessels to prepare a spiral specimen; from tissue; host or cells: rat (Wistar-KY) abdominal side tail artery, spiral specimen
Method: [Measurement of serotonin 2 receptor antagonistic activity]
Male rats of Wistar-KY line (body weight, approximately 220 to 370 g) were sacrificed and subjected to bloodletting to excise abdominal side tail arteries. A piece of wire was inserted into each of the thus excised blood vessels to prepare a spiral specimen (approximately 1.5 x 30 mm). The specimen was suspended in a Magnus tube (10 ml; Krebs-Hensereit solution) with a load of 500 mg at 37°C, and a gas mixture of 95% O₂ + CO₂ was passed through the tube. Tensile force was measured using a tension transducer (TB-621T, manufactured by Nippon Koden) and writing the data on an ink recorder (FBA-253A, manufactured by Toa Denpa) via a pressure amplifier (AP-621G, manufactured by Nippon Koden). After 1 hour of equilibration time, the specimen was contracted with 10⁻⁵ M of serotonin, washed and then subjected to cumulative administration of 10⁻⁸ to 3 x 10⁻⁵ M serotonin at intervals of 45 minutes to record the resulting contraction twice. The second recording was used as a control. Thereafter, each of the drugs to be tested was administered 10 minutes before the commencement of the cumulative administration to evaluate its serotonin antagonism. […] In the table, each result was indicated by "+" when the IC₅₀ value was 1.0 x 10⁻⁷ M or more, "++" when the value was 9.9 x 10⁻⁸ to 1.0 x 10⁻⁸ M and "+++" when the value was 9.9 x 10⁻⁹ M or smaller.

platelet aggregation = assay: Measurement of platelet aggregation inhibition activity (5-HTP plus collagen induced aggregation of platelet rich plasma); assay type: cell-based; settings: Oryctolagus cuniculus, rabbit PRP, 5-HTP final concentration 3 µM plus collagen in a concentration which alone does not cause aggregation, probit analysis, read-out: IC₅₀ value
Method: [Measurement of platelet aggregation inhibition activity]
Measurement of platelet aggregation was carried out using a platelet aggregation measuring apparatus NSB Hematracer 601.
Blood samples were collected from auricular arteries of male Japanese white rabbits (2 to 3 kg) using a syringe containing 1 volume of 3.8% sodium citrate per 9 volumes of blood and centrifuged at 900 rpm for 10 minutes. After collecting the resulting supernatant fluid as platelet rich plasma (PRP), the remaining lower layer was centrifuged at 3,000 rpm for 10 minutes to obtain platelet poor plasma (PPP). Platelets in the thus obtained PRP were counted using a microcell counter (Sysmex F-800, manufactured by Toa Iyo Denshi) and diluted with the PPP to a density of 30 x 10⁴/µl.
A 220 µl portion of PRP was mixed with 5 µl of 104 mM CaCl₂, incubated at 37°C for 1 minute and then mixed with 5 µl of a drug to be tested or physiological saline as a control. […] Activities to inhibit the aggregation reaction were measured to calculate 50% inhibition concentration (IC₅₀) by probit analysis, with the results shown in Table 2. In the table, each result was indicated by "+" when the IC₅₀ value was 1.0 x 10⁻⁶ M or more, "++" when the value was 9.9 x 10⁻⁷ to 1.0 x 10⁻⁷ M and "+++" when the value was 9.9 x 10⁻⁸ M or smaller.

[1] = system: 5-HTP-induced head-twitch; assay: Measurement of activity to inhibit 5-HTP-induced head-twitch; assay type: in vivo, mouse; settings: read-out: IC₅₀ value
Method: [Measurement of activity to inhibit 5-HTP-induced head-twitch]
To each ICR male mouse of 4 weeks of age were administered 300 mg/kg of 5-HTP by intraperitoneal injection (i.p.) and then 0.03 to 3 mg/kg of each test drug 25 minutes thereafter by intravenous injection, thereby counting the number of head-twitch induced after 5 minutes of the administration (for 20 minutes) and calculating the IC₅₀ value. In the table, each result was indicated by "+" when the IC₅₀ value was […] or more, "++" when the value was 100 to 999 mg/kg and "+++" when the value was 99 mg/kg or less.

T1 sequence (P14842 whole entry): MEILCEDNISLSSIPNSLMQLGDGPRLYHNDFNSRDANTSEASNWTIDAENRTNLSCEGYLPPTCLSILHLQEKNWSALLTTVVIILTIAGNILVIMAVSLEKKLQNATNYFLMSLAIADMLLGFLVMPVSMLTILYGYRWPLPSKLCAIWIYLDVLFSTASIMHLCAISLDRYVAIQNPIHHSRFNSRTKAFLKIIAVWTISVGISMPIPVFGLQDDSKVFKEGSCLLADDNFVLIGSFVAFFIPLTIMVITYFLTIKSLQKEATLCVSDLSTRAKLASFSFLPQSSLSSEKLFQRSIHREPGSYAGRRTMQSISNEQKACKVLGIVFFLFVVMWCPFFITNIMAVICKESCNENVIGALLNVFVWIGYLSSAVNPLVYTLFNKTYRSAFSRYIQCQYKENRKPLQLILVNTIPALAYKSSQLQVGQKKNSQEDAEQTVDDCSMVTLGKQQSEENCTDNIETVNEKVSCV

Work on `COc1cccc(CC(CCN2CCC(C(=O)c3ccc(F)cc3)CC2)c2ccccc2OC)c1` (stereo not drawn) [A, 4-(4-Fluorobenzoyl)-1-[3-(2-methoxyphenyl)-4-(3-methoxyphenyl)butyl]piperidine hydrochloride] yielded a pIC50 (serotonin 2 receptor) of 7.00 to 8.00.

Work on `COc1cccc(C(=O)N(CCN2CCC(C(=O)c3ccc(F)cc3)CC2)c2ccccc2OC)c1` [B, N-{2-[4-(4-Fluorobenzoyl)piperidino]ethyl}-3-methoxy-N-(2-methoxyphenyl)benzamide oxalate] yielded a pIC50 (serotonin 2 receptor) of 7.00 to 8.00.

`COc1ccc(S(=O)(=O)N(CCN2CCC(C(=O)c3ccc(F)cc3)CC2)c2ccccc2OC)cc1` [C, N-{2-[4-(4-Fluorobenzoyl)piperidino]ethyl}-4-methoxy-N-(2-methoxyphenyl)benzenesulfonamide oxalate] was tested, and the pIC50 (platelet aggregation) was ≤ 6.00.

`COc1ccc(S(=O)(=O)NC(=N)CCN2CCC(C(=O)c3ccc(F)cc3)CC2)cc1` [Compound I, 3-[4-(4-Fluorobenzoyl)piperidino]-N-(4-methoxybenzenesulfonyl)propionamidine oxalate] showed a pIC50 (serotonin 2 receptor) of 7.00 to 8.00.

Compound `COc1ccccc1N(CCN1CCC(C(=O)c2ccc(F)cc2)CC1)S(=O)(=O)c1ccc(F)cc1` [D, 4-Fluoro-N-{2-[4-(4-fluorobenzoyl)piperidino]ethyl}-N-(2-methoxyphenyl)benzenesulfonamide oxalate] has a pIC50 (serotonin 2 receptor) of 7.00 to 8.00.

Compound `COc1ccc(S(=O)(=O)N(CCN2CCC(C(=O)c3ccc(F)cc3)CC2)C2CCCCC2)cc1` [E, N-Cyclohexyl-N-{2-[4-(4-fluorobenzoyl)piperidino]ethyl}-4-methoxybenzenesulfonamide oxalate] has a pIC50 (serotonin 2 receptor) of 7.00 to 8.00.

For `COc1ccccc1N(CCN1CCC(C(=O)c2ccc(F)cc2)CC1)S(=O)(=O)c1ccc(CO)cc1` [F, N-{2-[4-(4-Fluorobenzoyl)piperidino]ethyl}-4-hydroxymethyl-N-(2-methoxyphenyl)benzenesulfonamide oxalate], the pIC50 (serotonin 2 receptor) was > 8.00.

For `COc1ccccc1N(CCN1CCC(C(=O)c2ccc(F)cc2)CC1)C(=O)c1ccc(CO)cc1.O=C(O)C(=O)O` [G, N-{2-[4-(4-Fluorobenzoyl)piperidino]ethyl}-4-hydroxymethyl-N-(2-methoxyphenyl)benzamide oxalate], the pIC50 (platelet aggregation) was 6.00 to 7.00 and the ED50 ([1]; Mus musculus, iv) was < 99 mg/kg.

For `COc1ccccc1N(CCN1CCC(C(=O)c2ccc(F)cc2)CC1)C(=O)c1ccc(CN)cc1.O=C(O)C(=O)O` [H, 4-Aminomethyl-N-{2-[4-(4-fluorobenzoyl)piperidino]ethyl}-N-(2-methoxyphenyl)benzamide oxalate], the pIC50 (serotonin 2 receptor) was 7.00 to 8.00, the pIC50 (platelet aggregation) was 6.00 to 7.00 and the ED50 ([1]; Mus musculus, iv) was > 1000 mg/kg.

In the case of `COc1cccc(N(CCN2CCC(C(=O)c3ccc(F)cc3)CC2)C(=O)c2ccc(NC(C)=O)cc2)c1.O=C(O)/C=C/C(=O)O` [J, 4-Acetylamino-N-{2-[4-(4-fluorobenzoyl)piperidino]ethyl}-N-(3-methoxyphenyl)benzamide fumarate], the pIC50 (serotonin 2 receptor) was 7.00 to 8.00, the pIC50 (platelet aggregation) was > 7.00 and the ED50 ([1]; Mus musculus, iv) was 100 to 999 mg/kg.

Compound `CC(=O)Nc1ccc(C(=O)N(CCN2CCC(C(=O)c3ccc(F)cc3)CC2)c2ccccc2)cc1` [K, 4-Acetylamino-N-{2-[4-(4-fluorobenzoyl)piperidino]ethyl}-N-(phenyl)benzamide fumarate] has a pIC50 (serotonin 2 receptor) of 7.00 to 8.00.

With `O=C(c1ccc(F)cc1)C1CCN(CCn2c(=O)[nH]c3ccccc3c2=O)CC1` [ketanserin, reference compound] the pIC50 (platelet aggregation) was 6.00 to 7.00 and the ED50 ([1]; ICR male mouse, 300 mg/kg 5-HTP i.p., test drug 0.03 to 3 mg/kg intravenous 25 minutes thereafter, head-twitch counted for 20 minutes) was < 99 mg/kg.
